Measured values from PubChem BioAssay (NCI).
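Each compound was tested at five concentrations against cells in 96-well plates for 48 hours. TGI: concentration producing complete growth inhibition.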 Where a SMILES comes first, the peptide text is derived from it. The star is where a group is joined. Boc = CC(C)(C)OC(=O)*; OSu = O=C1CCC(=O)N1O*

Legend:
Assay in all cases: NCI tumour cell line growth inhibition, 48 h
786-0 renal = system: 786-0 renal
A498 renal = system: A498 renal
A549 NSCLC = system: A549 NSCLC
ACHN renal = system: ACHN renal
BT-549 breast = system: BT-549 breast
CAKI-1 renal = system: CAKI-1 renal
CCRF-CEM leukemia = system: CCRF-CEM leukemia
COLO 205 colon = system: COLO 205 colon
DU-145 prostate = system: DU-145 prostate
EKVX NSCLC = system: EKVX NSCLC
HCT-116 colon = system: HCT-116 colon
HCT-15 colon = system: HCT-15 colon
HL-60(TB) leukemia = system: HL-60(TB) leukemia
HS 578T breast = system: HS 578T breast
HT29 colon = system: HT29 colon
IGROV1 ovarian = system: IGROV1 ovarian
K-562 leukemia = system: K-562 leukemia
KM12 colon = system: KM12 colon
M14 melanoma = system: M14 melanoma
MALME-3M melanoma = system: MALME-3M melanoma
MDA-MB-231 breast = system: MDA-MB-231 breast
MDA-MB-435 = system: MDA-MB-435
MDA-N = system: MDA-N
MOLT-4 leukemia = system: MOLT-4 leukemia
NCI-H226 lung = system: NCI-H226 lung
NCI-H23 lung = system: NCI-H23 lung
NCI-H460 lung = system: NCI-H460 lung
NCI-H522 lung = system: NCI-H522 lung
NCI/ADR-RES ovarian = system: NCI/ADR-RES ovarian
OVCAR-4 ovarian = system: OVCAR-4 ovarian
OVCAR-5 ovarian = system: OVCAR-5 ovarian
OVCAR-8 ovarian = system: OVCAR-8 ovarian
PC-3 prostate = system: PC-3 prostate
RPMI-8226 leukemia = system: RPMI-8226 leukemia
RXF 393 renal = system: RXF 393 renal
SF-268 CNS = system: SF-268 CNS
SF-295 CNS = system: SF-295 CNS
SF-539 CNS = system: SF-539 CNS
SK-MEL-2 melanoma = system: SK-MEL-2 melanoma
SK-MEL-5 melanoma = system: SK-MEL-5 melanoma
SK-OV-3 ovarian = system: SK-OV-3 ovarian
SN12C renal = system: SN12C renal
SNB-19 CNS = system: SNB-19 CNS
SR leukemia = system: SR leukemia
SW-620 colon = system: SW-620 colon
T-47D breast = system: T-47D breast
TK-10 renal = system: TK-10 renal
UACC-257 melanoma = system: UACC-257 melanoma
UACC-62 melanoma = system: UACC-62 melanoma
UO-31 renal = system: UO-31 renal
HCC-2998 colon = system: HCC-2998 colon
HOP-62 NSCLC = system: HOP-62 NSCLC
HOP-92 NSCLC = system: HOP-92 NSCLC
MCF7 breast = system: MCF7 breast
OVCAR-3 ovarian = system: OVCAR-3 ovarian
SK-MEL-28 melanoma = system: SK-MEL-28 melanoma
SNB-75 CNS = system: SNB-75 CNS
U251 CNS = system: U251 CNS
LOX IMVI melanoma = system: LOX IMVI melanoma

SMILES: O=C(NCCC1([N+](=O)[O-])CCN(C(=O)c2ccccc2)CC1)c1ccccc1
- TGI (786-0 renal): > 100 µM
- TGI (A498 renal): > 100 µM
- TGI (A549 NSCLC): > 100 µM
- TGI (ACHN renal): > 100 µM
- TGI (BT-549 breast): > 100 µM
- TGI (CAKI-1 renal): > 100 µM
- TGI (CCRF-CEM leukemia): > 100 µM
- TGI (COLO 205 colon): > 100 µM
- TGI (DU-145 prostate): > 100 µM
- TGI (EKVX NSCLC): > 100 µM
- TGI (HCT-116 colon): > 100 µM
- TGI (HCT-15 colon): > 100 µM
- TGI (HL-60(TB) leukemia): > 100 µM
- TGI (HS 578T breast): > 100 µM
- TGI (HT29 colon): > 100 µM
- TGI (IGROV1 ovarian): > 100 µM
- TGI (K-562 leukemia): > 100 µM
- TGI (KM12 colon): > 100 µM
- TGI (M14 melanoma): > 100 µM
- TGI (MALME-3M melanoma): > 100 µM
- TGI (MDA-MB-231 breast): > 100 µM
- TGI (MDA-MB-435): > 100 µM
- TGI (MDA-N): > 100 µM
- TGI (MOLT-4 leukemia): > 100 µM
- TGI (NCI-H226 lung): > 100 µM
- TGI (NCI-H23 lung): > 100 µM
- TGI (NCI-H460 lung): > 100 µM
- TGI (NCI-H522 lung): > 100 µM
- TGI (NCI/ADR-RES ovarian): > 100 µM
- TGI (OVCAR-4 ovarian): > 100 µM
- TGI (OVCAR-5 ovarian): > 100 µM
- TGI (OVCAR-8 ovarian): > 100 µM
- TGI (PC-3 prostate): > 100 µM
- TGI (RPMI-8226 leukemia): > 100 µM
- TGI (RXF 393 renal): > 100 µM
- TGI (SF-268 CNS): > 100 µM
- TGI (SF-295 CNS): > 100 µM
- TGI (SF-539 CNS): > 100 µM
- TGI (SK-MEL-2 melanoma): > 100 µM
- TGI (SK-MEL-5 melanoma): > 100 µM
- TGI (SK-OV-3 ovarian): > 100 µM
- TGI (SN12C renal): > 100 µM
- TGI (SNB-19 CNS): > 100 µM
- TGI (SR leukemia): > 100 µM
- TGI (SW-620 colon): > 100 µM
- TGI (T-47D breast): > 100 µM
- TGI (TK-10 renal): > 100 µM
- TGI (UACC-257 melanoma): 87.8 µM
- TGI (UACC-62 melanoma): > 100 µM
- TGI (UO-31 renal): > 100 µM

SMILES: CC(NC(=O)C(NC(=O)OC(C)(C)C)C(C)C)C(=O)NCC(=O)ON1C(=O)CCC1=O (stereo not drawn) (Boc-Val-Ala-Gly-OSu; configuration not given here)
- TGI (786-0 renal): > 100 µM
- TGI (A549 NSCLC): > 100 µM
- TGI (ACHN renal): > 100 µM
- TGI (BT-549 breast): > 100 µM
- TGI (CAKI-1 renal): > 100 µM
- TGI (COLO 205 colon): > 100 µM
- TGI (DU-145 prostate): > 100 µM
- TGI (EKVX NSCLC): > 100 µM
- TGI (HCC-2998 colon): > 100 µM
- TGI (HCT-116 colon): > 100 µM
- TGI (HCT-15 colon): > 100 µM
- TGI (HOP-62 NSCLC): > 100 µM
- TGI (HOP-92 NSCLC): > 100 µM
- TGI (HT29 colon): > 100 µM
- TGI (IGROV1 ovarian): > 100 µM
- TGI (K-562 leukemia): > 100 µM
- TGI (KM12 colon): > 100 µM
- TGI (M14 melanoma): > 100 µM
- TGI (MALME-3M melanoma): > 100 µM
- TGI (MCF7 breast): > 100 µM
- TGI (MDA-MB-231 breast): > 100 µM
- TGI (MDA-MB-435): > 100 µM
- TGI (MDA-N): > 100 µM
- TGI (MOLT-4 leukemia): > 100 µM
- TGI (NCI-H226 lung): > 100 µM
- TGI (NCI-H23 lung): > 100 µM
- TGI (NCI-H460 lung): > 100 µM
- TGI (NCI-H522 lung): > 100 µM
- TGI (NCI/ADR-RES ovarian): > 100 µM
- TGI (OVCAR-3 ovarian): > 100 µM
- TGI (OVCAR-5 ovarian): > 100 µM
- TGI (OVCAR-8 ovarian): > 100 µM
- TGI (PC-3 prostate): > 100 µM
- TGI (RPMI-8226 leukemia): > 100 µM
- TGI (RXF 393 renal): > 100 µM
- TGI (SF-268 CNS): > 100 µM
- TGI (SF-295 CNS): > 100 µM
- TGI (SF-539 CNS): > 100 µM
- TGI (SK-MEL-2 melanoma): > 100 µM
- TGI (SK-MEL-28 melanoma): > 100 µM
- TGI (SK-MEL-5 melanoma): > 100 µM
- TGI (SK-OV-3 ovarian): > 100 µM
- TGI (SN12C renal): > 100 µM
- TGI (SNB-19 CNS): > 100 µM
- TGI (SNB-75 CNS): > 100 µM
- TGI (SR leukemia): > 100 µM
- TGI (SW-620 colon): > 100 µM
- TGI (T-47D breast): > 100 µM
- TGI (TK-10 renal): > 100 µM
- TGI (U251 CNS): > 100 µM
- TGI (UACC-257 melanoma): > 100 µM
- TGI (UACC-62 melanoma): > 100 µM
- TGI (UO-31 renal): > 100 µM

SMILES: COc1ccc2nc3c([N+](=O)[O-])ccc4c3c(c2c1)NCCN4CCO
- TGI (786-0 renal): 1.46 µM
- TGI (A498 renal): 2 µM
- TGI (A549 NSCLC): 2.68 µM
- TGI (ACHN renal): 2.25 µM
- TGI (CAKI-1 renal): 3.06 µM
- TGI (CCRF-CEM leukemia): 2 µM
- TGI (COLO 205 colon): 1.74 µM
- TGI (DU-145 prostate): 5.34 µM
- TGI (EKVX NSCLC): 2.97 µM
- TGI (HCC-2998 colon): 1.91 µM
- TGI (HCT-116 colon): 1.22 µM
- TGI (HCT-15 colon): 2.68 µM
- TGI (HL-60(TB) leukemia): 1.25 µM
- TGI (HOP-62 NSCLC): 2.28 µM
- TGI (HOP-92 NSCLC): 1.59 µM
- TGI (HS 578T breast): 2.79 µM
- TGI (HT29 colon): 2.02 µM
- TGI (IGROV1 ovarian): 3.22 µM
- TGI (K-562 leukemia): 1.08 µM
- TGI (KM12 colon): 2.35 µM
- TGI (LOX IMVI melanoma): 0.792 µM
- TGI (M14 melanoma): 1.78 µM
- TGI (MALME-3M melanoma): 1.45 µM
- TGI (MCF7 breast): 3.19 µM
- TGI (MDA-MB-231 breast): 2.05 µM
- TGI (MDA-MB-435): 1.79 µM
- TGI (MDA-N): 1.64 µM
- TGI (MOLT-4 leukemia): 0.806 µM
- TGI (NCI-H226 lung): 0.958 µM
- TGI (NCI-H23 lung): 2.45 µM
- TGI (NCI-H460 lung): 1.18 µM
- TGI (NCI-H522 lung): 1.24 µM
- TGI (NCI/ADR-RES ovarian): 4.41 µM
- TGI (OVCAR-3 ovarian): 2.91 µM
- TGI (OVCAR-4 ovarian): 2.39 µM
- TGI (OVCAR-5 ovarian): 2.95 µM
- TGI (OVCAR-8 ovarian): 2.01 µM
- TGI (PC-3 prostate): 1.56 µM
- TGI (RPMI-8226 leukemia): 2.61 µM
- TGI (RXF 393 renal): 1.78 µM
- TGI (SF-268 CNS): 6.26 µM
- TGI (SF-295 CNS): 1.71 µM
- TGI (SF-539 CNS): 1.56 µM
- TGI (SK-MEL-2 melanoma): 1.87 µM
- TGI (SK-MEL-28 melanoma): 2.03 µM
- TGI (SK-MEL-5 melanoma): 1.15 µM
- TGI (SK-OV-3 ovarian): 3.58 µM
- TGI (SN12C renal): 2.34 µM
- TGI (SNB-19 CNS): 3.08 µM
- TGI (SNB-75 CNS): 1.88 µM
- TGI (SR leukemia): 0.455 µM
- TGI (SW-620 colon): 3.1 µM
- TGI (T-47D breast): 3.68 µM
- TGI (TK-10 renal): 4.51 µM
- TGI (U251 CNS): 1.85 µM
- TGI (UACC-257 melanoma): 1.5 µM
- TGI (UACC-62 melanoma): 1.07 µM
- TGI (UO-31 renal): 1.47 µM
